Measured values from patent US20130190524A1, “CYCLITOLS AND THEIR DERIVATIVES AND THEIR THERAPEUTIC APPLICATIONS” (UNIVERSITE DE STRASBOURG, priority 2006, published 2013).

Legend:
free hemoglobin (Hb) = target: T1, free hemoglobin (Hb) (Homo sapiens, UniProt P68871); experiment: P50 (oxygen equilibrium curve, Hemox Analyzer) on free hemoglobin; format: biochemical; conditions: blood matrix Hb, free hemoglobin 100 μM, pH 7.4, 37° C.; for P50: effector 2 mM (effector/Hb ratio 20), n=3; for P50 increase: versus P50 control, effector 2 mM
T1 construct: the cells were hemolysed by addition of 2 volumes of cold distilled water; tissue EFS-Alsace; host or cells: red blood cell concentrate, hemolysed, stroma removed, passed over Sephadex G-25
Protocol: (§1) Some of the compounds described herein were tested for P50 on free hemoglobin (Hb) as well as human whole blood (WB) as 120 mM solutions. The hemoglobin solution was prepared from red blood cells concentrate (EFS-Alsace) by washing three times with 1 volume of saline (1500×g, 10 min), the cells were hemolysed by addition of 2 volumes of cold distilled water. After centrifugation (7000×g, 30 min) for stroma removal, 5 ml of the clear hemoglobin solution were placed on a 2.5 cm×30 cm column of Sephadex G-25 equilibrated with 0.1 M sodium chloride+10^−5 M EDTA. The protein was eluted with the same solution at a rate of about 20 ml/h [Benesch, R.; Benesch, R. E. and Yu, C. I. Reciprocal binding of oxygen and diphosphoglycerate by human hemoglobin. Proc. Natl. Acad. Sci. USA (1968) 59, 526-532].
The allosteric modulation of the effectors was measured by the change in p50, the partial pressure of oxygen for half-saturation. myo-Inositol hexaphosphate (myo-1HP) was purchased from Sigma. Oxygen equilibrium curves (OEC) were carried out with the Hemox Analyzer (TCS Scientific Co.) under the following conditions: pH 7.4, 135 mM NaCl, 5 mM KCl and 30 mM TES (N-[tris(hydroxymethyl)methyl]-2-aminoethanesulfonic acid) buffer at 37° C. The concentration of free hemoglobin was 100 μM (577 nm, ε=58.4 mM^−1 cm^−1 per tetramer) and the final concentration of the allosteric effector in the cuvette was 2 mM resulting in an effector/Hb ratio of 20.

human whole blood (WB) = experiment: P50 (oxygen dissociation curve, Hemox Analyzer) on human whole blood; format: cell-based; conditions: blood matrix WB, 120 mM compound solution, 1:1 with whole blood; for P50: incubated two hours at 37° C., n=3; for P50 increase: versus P50 control, two hours at 37° C.
Protocol: as §1
Human blood was freshly withdrawn in heparinized tubes. The pH of the compound solutions was adjusted to approximately 7.0 and whole blood volumes at 1:1 ratios where incubated individually for two hours at 37° C. with the above compounds. Following, incubation, blood cells were washed 3 times with Bis-Tris-buffer. The measurement of oxygen dissociation curves was made in a Hemox-Analyzer instrument (TCS Scientific Corp.) A summary of P50 values for whole blood induced by the compounds is presented in Table 1.

T1 sequence (P68871 2-147 limits assumed): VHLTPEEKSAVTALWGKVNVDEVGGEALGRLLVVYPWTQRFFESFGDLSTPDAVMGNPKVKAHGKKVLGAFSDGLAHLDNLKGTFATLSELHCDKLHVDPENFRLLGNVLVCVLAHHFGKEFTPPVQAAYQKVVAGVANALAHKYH
T1 sequence (P69905 2-142 partner limits assumed): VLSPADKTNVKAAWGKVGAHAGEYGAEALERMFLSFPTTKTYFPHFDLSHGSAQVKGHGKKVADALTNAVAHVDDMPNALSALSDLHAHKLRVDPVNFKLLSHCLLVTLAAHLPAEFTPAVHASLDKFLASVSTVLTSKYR

## O=P(O)(O)O[C@H]1[C@H](OP(=O)(O)O)[C@@H](OP(=O)(O)O)[C@H](OP(=O)(O)O)[C@@H](OP(=O)(O)O)[C@H]1OP(=O)(O)O [myo-IHP, myo-Inositol hexaphosphate, reference compound]
Free hemoglobin (Hb)
  P50: 48.37 ± 3.71 Torr
  P50 increase: 282%

## O[C@H]1[C@H](O)[C@@H](O)[C@H](O)[C@@H](O)[C@H]1O [myo-Inositol (Compound 5, Scheme 6)]
Free hemoglobin (Hb)
  P50: 27.25 ± 0.14 Torr
  P50 increase: 148%
Human whole blood (WB)
  P50: 35.53 ± 1.43 Torr
  P50 increase: 23%

## O[C@H]1[C@H](O)[C@@H](O)[C@H](O)[C@@H](O)[C@H]1O [myo-Inositol (Compound 7, Scheme 6)]
Free hemoglobin (Hb)
  P50: 27.43 ± 1.07 Torr
  P50 increase: 158%

## Hexasodium scyllo-inositol 1,2:3,4:5,6-trispyrophosphate [scyllo-ITPP (Compound 4, Scheme 5)]
Free hemoglobin (Hb)
  P50: 23.02 ± 1.83 Torr
  P50 increase: 127%
Human whole blood (WB)
  P50: 34.10 ± 1.81 Torr
  P50 increase: 18%
